One molecule from patent US6638968B1, “Use of prodigiosin for treating diabetes mellitus” (Korea Research Institute of Bioscience and Biotechnology, priority 2000, dated 2003) can be followed below.

Assay type in all cases: in vivo, mouse
For data set [1], the system named is NOD mice. In words: Insulitis: lymphocyte infiltration into pancreatic ducts, hematoxylin/eosin staining. The conditions noted are these: prodigiosin-injected NOD mice. On the procedure:
In insulin-dependent diabetes mellitus, insulitis may be induced by lymphocyte infiltration into pancreatic ducts and destruction of beta cells thereby. Macrophages and T cells are the major infiltrating lymphocytes, and these immune cells destroy beta cells. The pancreas from both the prodigiosin-injected and the non-injected NOD mice were preserved in formalin and to preparation. After the hematoxylin/eosin staining, the lymphocyte infiltration level was measured. 1, 2, and 3 point were respectively given to 25, 50, and 75% of insulitis progression, and the average value of insulitis progression was calculated (FIG. 4). The NOD mice, not receiving prodigiosin, had more than 2 point, or over 50% of infiltration, while the infiltration level of the prodigiosin-injected mice was about 1 point, or under 20% of infiltration.

For data set [2], the system named is NOD mice. In words: Blood glucose of NOD mice (plasma, blood biochemical analyzer). The conditions noted are these: prodigiosin-injected NOD mice, 10 mg/kg intraperitoneally. On the procedure: FIG. 3 illustrates decrease of the blood glucose by administration of prodigiosin. After we isolated plasma from NOD mouse, the blood glucose was measured with the blood biochemical analyzer (Cibacorning, USA).
Prodigiosin was intraperitoneally injected in 10 mg/kg from 8 weeks to 24 weeks of age, and the urine glucose was measured with uropaper (Eiken Chemical Co. Ltd., Japan) every week. In control group of NOD mice, not receiving prodigiosin, the urine glucose was first detected from 15 weeks of age, and at 24 weeks, 80% of the mice had the urine glucose detected (FIG. 2). […] Average blood glucose of non-prodigiosin-injected NOD mice was 500 mg/dl, which means diabetes mellitus crisis, and that of prodigiosin-injected NOD mice was 100 mg/dl, which means the normal condition (FIG. 3).

For data set [3], the system named is NOD mice. Nature of the data set: Side effects of prodigiosin in NOD mice (body weight, mortality, pathological test of liver, kidney, lung). On the procedure:
Because of diabetes, NOD mice have their weight decrease and come to die in 2 weeks after symptoms of diabetes.
FIG. 7 illustrates that the prodigiosin has no side effect.
In NOD mice receiving prodigiosin from 8 weeks to 24 weeks age, the negative effects of the prodigiosin were examined (FIG. 7). […] After their liver, kidney, and lung had been extracted from the prodigiosin-injected NOD mice, a pathological test was performed using the hematoxylinleosin staining.

As for `CCCCCC1=C/C(=C/c2[nH]c(-c3ccc[nH]3)cc2OC)N=C1C` [prodigiosin], in the data set with NOD mice [1] (pancreas, hematoxylin/eosin staining), the lymphocyte infiltration entry is on record as “under 20%”. In addition, the “infiltration level (average insulitis progression score)” value in the data set with NOD mice [1] (1, 2, 3 point = 25, 50, 75% insulitis progression) is on record as “about 1 point”. This molecule had an average blood glucose in the data set with NOD mice [2] of 100 mg/dL. In the data set on NOD mice [3] (NOD mice receiving prodigiosin), the mortality entry is given as “any mice were not found dead”; the “toxicity to kidney, liver and lung” value was “no toxicity to kidney, liver and lung”. Also, in the data set with NOD mice [3] (NOD mice receiving prodigiosin from 8 to 24 weeks of age), the body weight result is “didn't decrease”. Besides, in the data set on NOD mice [3] (NOD mice receiving prodigiosin from 8 to 24 weeks of age, hematoxylin/eosin staining), the “toxicity to kidney (glomerulus and nephric tubule, pathological test)” value is “no toxicity to kidney”.
